Measurements: patent US10471118B2, “Retinylamine derivitives for treatment of ocular disorders” (CASE WESTERN RESERVE UNIVERSITY, priority 2014, dated 2019)
Entries after “also recorded” stand apart in the source; their conditions may differ.

Tests used:
Abca4^−/−Rdh8^−/− mice = assay: Light-induced retinal degeneration in Abca4-/-Rdh8-/- mice (OCT, ERG, histology), Example 1; format: in vivo, mouse; details: 0.875 μmol per mouse oral gavage 16 h before 10,000 lux 1 h, OCT after 3 days in dark
Protocol: Abca4^−/−Rdh8^−/− double knockout mice were housed in the animal facility at the School of Medicine, Case Western Reserve University, where they were maintained under either complete darkness or a 12-h light (−10 1×) and 12-h dark cycle. All retinylamine tested were dissolved or suspended in 100 μl of vegetable oil with less than 10% (v/v) DMSO and were administered by oral gavage with a 22-gauge feeding needle. Experimental manipulations in the dark were done under dim red light transmitted through a Kodak No. 1 safelight filter (transmittance >560 nm). All animal procedures and experiments were approved by the Case Western Reserve University Animal Care Committees and conformed to recommendations of the American Veterinary Medical Association Panel on Euthanasia and the Association of Research for Vision and Ophthalmology.
After dark adaptation for 48 h, one or two Abca4^−/−Rdh8^−/− mice with pupils dilated by 1% tropicamide were exposed to fluorescent light (10,000 1×; 150-W spiral lamp, Commercial Electric) for 60 min in a white plastic bucket (Papersmith) with food and water and then kept in the dark. Histological and biochemical experiments were performed 3 days after exposure.
Ultra-high resolution spectral-domain OCT (SD-OCT; Bioptigen) and Heidelberg Retinal Angiograph II SLO (Heidelberg Engineering) were used for in vivo imaging of mouse retinas. Mice were anesthetized by intraperitoneal injection of a cocktail (20 μl g-1 body weight) containing ketamine (6 mg ml-1) and xylazine (0.44 mg ml-1) in 10 mM sodium phosphate, pH 7.2, and 100 mM NaCl. Pupils were dilated with 1% tropicamide. Four pictures acquired in the B-scan mode were used to construct each final averaged SD-OCT image.
All ERG procedures were performed by published methods. For single-flash recording, the duration of white-light flash stimuli (from 20 μs to 1 ms) was adjusted to provide a range of illumination intensities (from −3.7 to 1.6 log cd s m-2). Three to five recordings were made at sufficient intervals between flash stimuli (from 3 s to 1 min) to allow recovery from any photobleaching effects.
Mouse eyes were fixed for 24 h by rocking in a fixation solution (2 ml/eye) containing 4% paraformaldehyde and 1% glutaraldehyde in PBS. The tissue was processed through a series of ethanols, xylenes, and paraffins in a Tissue-Tek VIP automatic processor (Sakura, Torrance, Calif., USA), and 5-μm sections were cut using a Microm HM355 paraffin microtome (Thermo Fisher Scientific, Waltham, Mass., USA) and stained with hematoxylin and eosin (H&E) stain. Images of stained sections were captured by a Leica CTR6000 microscope attached to a CCD camera (Micropublisher 5.0 RTV, Qimaging Surray BC, Canada).
The effectiveness of the retinylamine derivatives on preventing light-induced retinal degeneration was tested in four-week old Abca4^−/−Rdh8^−/− mice according to the experimental scheme depicted in FIG. 1. After the mice were dark-adapted for 48 h, the drugs were gavaged at a dose 0.875 μmol/per mouse, which was selected based on the half protection dose for retinylamine after a dosing experiment, FIG. 2. Retinylamine was tested as a control at the same dose. […] Retinal integrity was assessed using optical coherence tomography (OCT). […] The mice without any treatment had photoreceptor cells completely destroyed after light illumination, and were used as a negative control. The retinal integrity was determined based on the thickness of outer nuclear layer (ONL) of the retinas measured from the OCT images. Reduced ONL thickness signifies the decreasing number of photoreceptors and retinal degeneration.

[1] = Biodistribution of N-retinylamides and retinylamine derivatives in liver and eye after oral gavage; format: in vivo, mouse; details: for original drug detected in the eye: 2 h and 16 h; for metabolism in the eye: conclusion from biodistribution at 2 h and 16 h
Protocol: Female C57BL mice (4-week-old) were randomly divided into seven groups, six treated groups and one control group. Free Ret-NH2 (3.5 μmol per mouse, dissolved in DMSO and dispersed in vegetable oil) or retinylamine derivatives (Ret-Gly, Ret-L-Val-Gly, Ret-L-Phe, Ret-L-Leu, Ret-L-Val, 3.5 μmol per mouse, dissolved in DMSO and dispersed in vegetable oil) was administered by gastric gavage, control group was only gavaged vegetable oil. Then at each predetermined time point (2 and 16 h after drug administration), 3 mice were sacrificed. The liver and eye balls were collected to determine tissue N-retinylamide content for pharmacokinetic analysis. A portion of the liver tissue (0.3-0.5 g) was weighed, homogenized in 2 mL 1:1 ethanol:PBS solution and the eye balls were similarly processed (eye balls were combined for 3 mice). N-Retinylamides were extracted in 4 mL hexane, concentrated, and reconstituted to a 300 μL volume for liver (200 μL for eye). Normal-phase HPLC (Agilent-Zorbax SIL; 5 μm; 4.5×250 mm; flow rate of 1.4 mL/min; 80:20 hexane:ethyl acetate (v:v); detection at 325 nm) was utilized to determine N-retinylamide concentration in these tissues.
Female C57BL mice (4-week-old) were randomly divided into seven groups, six treated groups and one control group. Free Ret-NH2 (3.5 μmol per mouse, dissolved in DMSO and dispersed in vegetable oil) or retinylamine derivative (Ret-Gly, Ret-L-Val-Gly, Ret-L-Phe, Ret-L-Leu, Ret-L-Val, 3.5 μmol per mouse, dissolved in DMSO and dispersed in vegetable oil) was administered by gastric gavage, control group was only gavaged vegetable oil. Then at each predetermined time point (2 and 16 h after drug administration), 3 mice were sacrificed. The liver and eye balls were collected to determine tissue drug content for pharmacokinetic analysis. A portion of the liver tissue (0.3-0.5 g) was weighed, homogenized in 2 mL 1:1 ethanol:PBS solution and the eye balls were similarly processed. Retinylamine or its derivative was extracted in 4 mL ethyl acetate, concentrated, and reconstituted to a 300 μL volume for liver (200 μL for eye). Reverse-phase HPLC (analytical C18 reverse column; 5 μm; 250 mm×4.6 mm; flow rate of 1.0 mL/min; 60:40 acetonitrile:H2O (v:v) with 0.05% trifluoroacetic acid; detection at 325 nm) was utilized to determine retinylamine or its derivative in these tissues. […]
No N-retinylamides were detected in the eye at 2 h for all treated mice. The concentration of N-retinylamides in the liver of all treated mice increased at 16 h post-treatment. […] The concentrations of the original drugs were also determined in the liver and eye at 2 h and 16 h (FIGS. 7C, D). All tested drugs, including Ret-NH2, were detected in liver and their concentrations decreased from 2 h to 16 h.

[2] = 3.5 μmol per mouse oral, C57BL mice, 16 h

Compound	protection against light-induced retinal degeneration (ONL thickness from OCT) (Abca4^−/−Rdh8^−/− mice)	original drug detected in the eye ([1]; 3.5 μmol per mouse oral)	other results
CC1=C(/C=C/C(C)=C/C=C/C(C)=C/CNC(=O)CN)C(C)(C)CCC1 [RG, 2-amino-N-((2E,4E,6E,8E)-3,7-dimethyl-9-(2,6,6-trimethylcyclohex-1-en-1-yl)nona-2,4,6,8-tetraen-1-yl)acetamide]	significant improvement on preventing light-induced retinopathy over retinyl amine; also recorded: relatively high protecting effect	detected in eyes at both 2 h and 16 h at a relatively high concentration	liver concentration of N-retinylamides [1, 2]: lower liver concentration of N-retinylamides than RF and RL; protection against light-induced retinal degeneration (ONL thickness from OCT) (Abca4^−/−Rdh8^−/− mice; listed as glycyl): significantly better protection than Ret-NH2 and other derivatives
CC1=C(/C=C/C(C)=C/C=C/C(C)=C/CNC(=O)[C@@H](N)C(C)C)C(C)(C)CCC1 [RV, (S)-2-amino-N-((2E,4E,6E,8E)-3,7-dimethyl-9-(2,6,6-trimethylcyclohex-1-en-1-yl)nona-2,4,6,8-tetraen-1-yl)-3-methylbutanamide]	relatively high protecting effect	detected in eyes at both 2 h and 16 h at a relatively high concentration	N-retinylamides in the eye [1, 2]: no detectable N-retinylamides in the eye; liver concentration of N-retinylamides [1, 2]: lower liver concentration of N-retinylamides than RF and RL; metabolism in the eye [1]: stable against metabolism and had prolonged presence in the eye as intact drug molecules
CC1=C(/C=C/C(C)=C/C=C/C(C)=C/CNC(=O)CNC(=O)[C@@H](N)C(C)C)C(C)(C)CCC1 [RGV, (S)-2-amino-N-(2-(((2E,4E,6E,8E)-3,7-dimethyl-9-(2,6,6-trimethylcyclohex-1-en-1-yl)nona-2,4,6,8-tetraen-1-yl)amino)-2-oxoethyl)-3-methylbutanamide]	significant improvement on preventing light-induced retinopathy over retinyl amine		
CC1=C(/C=C/C(C)=C/C=C/C(C)=C/CNC(=O)[C@@H](N)CC(C)C)C(C)(C)CCC1 [RL, (S)-2-amino-N-((2E,4E,6E,8E)-3,7-dimethyl-9-(2,6,6-trimethylcyclohex-1-en-1-yl)nona-2,4,6,8-tetraen-1-yl)-4-methylpentanamide]	low protecting effect	only detected at 2 h	metabolism in the eye [1]: rapidly metabolized into inactive N-retinylamides in the eye; protection against light-induced retinal degeneration (ONL thickness from OCT) (Abca4^−/−Rdh8^−/− mice; listed as L-leucyl): little protecting efficacy

Second part, led by results:

protection against light-induced retinal degeneration (ONL thickness from OCT) (Abca4^−/−Rdh8^−/− mice)	Compound	original drug detected in the eye ([1]; 3.5 μmol per mouse oral)	other results
little protecting efficacy	CC1=C(/C=C/C(C)=C/C=C/C(C)=C/CNC(=O)[C@H](N)C(C)C)C(C)(C)CCC1 [3g, (R)-2-amino-N-((2E,4E,6E,8E)-3,7-dimethyl-9-(2,6,6-trimethylcyclohex-1-en-1-yl)nona-2,4,6,8-tetraen-1-yl)-3-methylbutanamide]		
little protecting efficacy	CC1=C(/C=C/C(C)=C/C=C/C(C)=C/CNC(=O)[C@H](C)N)C(C)(C)CCC1 [3a, (S)-2-amino-N-((2E,4E,6E,8E)-3,7-dimethyl-9-(2,6,6-trimethylcyclohex-1-en-1-yl)nona-2,4,6,8-tetraen-1-yl)propanamide]		
little protecting efficacy	CC1=C(/C=C/C(C)=C/C=C/C(C)=C/CNC(=O)[C@@H](C)N)C(C)(C)CCC1 [3f, (R)-2-amino-N-((2E,4E,6E,8E)-3,7-dimethyl-9-(2,6,6-trimethylcyclohex-1-en-1-yl)nona-2,4,6,8-tetraen-1-yl)propanamide]		
little protecting efficacy	CC[C@H](C)[C@H](N)C(=O)NC/C=C(C)/C=C/C=C(C)/C=C/C1=C(C)CCCC1(C)C [3c, (2S,3S)-2-amino-N-((2E,4E,6E,8E)-3,7-dimethyl-9-(2,6,6-trimethylcyclohex-1-en-1-yl)nona-2,4,6,8-tetraen-1-yl)-3-methylpentanamide]		
little protecting efficacy	CC1=C(/C=C/C(C)=C/C=C/C(C)=C/CNC(=O)[C@@H]2CCCN2)C(C)(C)CCC1 [3i, (S)—N-((2E,4E,6E,8E)-3,7-dimethyl-9-(2,6,6-trimethylcyclohex-1-en-1-yl)nona-2,4,6,8-tetraen-1-yl)pyrrolidine-2-carboxamide]		
little protecting efficacy	CC1=C(/C=C/C(C)=C/C=C/C(C)=C/CNC(=O)CCN)C(C)(C)CCC1 [3h, 3-amino-N-((2E,4E,6E,8E)-3,7-dimethyl-9-(2,6,6-trimethylcyclohex-1-en-1-yl)nona-2,4,6,8-tetraen-1-yl)propanamide]		
